The record followed here is patent US20260258035A1, “FIVE-MEMBERED AND SIX-MEMBERED NITROGEN-CONTAINING COMPOUND, AND INTERMEDIATE, PREPARATION METHOD AND USE THEREOF” (HANGZHOU SYNRX THERAPEUTICS BIOMEDICAL TECHNOLOGY CO., LTD., priority 2022, published 2026).

The assay concerns the target PARG (Homo sapiens, UniProt Q86W56). In words: Biochemical assay (PARG, TFMU-ADPr substrate).
Setting [1] is: 4 nM PARG, 66.2 uM TFMU-ADPr, 3 min at room temperature.

SMILES strings stand for the structures.

Sequence of PARG (Q86W56 whole entry): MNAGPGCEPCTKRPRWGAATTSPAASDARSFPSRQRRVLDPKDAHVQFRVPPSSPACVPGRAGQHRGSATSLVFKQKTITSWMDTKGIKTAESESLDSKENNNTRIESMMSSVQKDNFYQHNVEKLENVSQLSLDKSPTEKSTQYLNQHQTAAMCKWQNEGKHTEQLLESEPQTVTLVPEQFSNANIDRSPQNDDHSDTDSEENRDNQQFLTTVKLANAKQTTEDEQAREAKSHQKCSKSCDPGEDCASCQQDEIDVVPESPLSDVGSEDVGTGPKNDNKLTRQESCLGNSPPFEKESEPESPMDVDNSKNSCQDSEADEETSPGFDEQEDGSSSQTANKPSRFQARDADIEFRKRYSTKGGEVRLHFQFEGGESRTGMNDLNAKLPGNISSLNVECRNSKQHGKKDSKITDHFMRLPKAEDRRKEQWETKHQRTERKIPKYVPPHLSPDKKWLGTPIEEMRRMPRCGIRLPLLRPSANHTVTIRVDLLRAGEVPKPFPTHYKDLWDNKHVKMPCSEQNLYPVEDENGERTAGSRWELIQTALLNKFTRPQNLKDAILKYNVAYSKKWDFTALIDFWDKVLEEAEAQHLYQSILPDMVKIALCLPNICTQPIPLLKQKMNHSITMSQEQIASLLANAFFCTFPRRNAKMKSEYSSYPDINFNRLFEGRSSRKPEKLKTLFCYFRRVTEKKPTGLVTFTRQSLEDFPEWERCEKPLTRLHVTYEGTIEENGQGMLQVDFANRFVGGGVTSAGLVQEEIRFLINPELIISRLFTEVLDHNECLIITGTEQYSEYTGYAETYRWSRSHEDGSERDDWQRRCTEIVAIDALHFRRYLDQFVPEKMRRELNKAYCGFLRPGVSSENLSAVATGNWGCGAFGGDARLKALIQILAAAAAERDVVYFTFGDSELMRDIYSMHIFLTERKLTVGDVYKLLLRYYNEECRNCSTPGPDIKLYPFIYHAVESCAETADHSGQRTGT

The IC50 is the concentration needed to halve the response being measured. A high value points to weaker potency in that assay. Compound `C=CC(=O)N1CC=C(c2cnc3c(N4CCN(C(=O)C(C)C)CC4)cc(S(=O)(=O)NC4(C#N)CC4)cn23)CC1` [Example 21, 3-(1-acryloyl-1,2,3,6-tetrahydropyridin-4-yl)-N-(1-cyanocyclopropyl)-8-(4-isobutyrylpiperazin-1-yl)imidazo[1,2-a]pyridine-6-sulfonamide] had a concentration for half-maximal inhibition (IC50) (PARG, TFMU-ADPr substrate) of 912 nM.
The same measure, in the same setting: with `Cc1cnc(-c2cnc3c(N4CCN(C(=O)C(C)C)CC4)cc(S(=O)(=O)NC4(C#N)CC4)cn23)s1` [Example 3, N-(1-cyanocyclopropyl)-8-(4-isobutyrylpiperazin-1-yl)-3-(5-methylthiazol-2-yl)imidazo[1,2-a]pyridine-6-sulfonamide] the figure was 33.1 nM.
Take `O=S(=O)(NC1(CF)CC1)c1cc(N2CCC(O)C2)c2cnc(-c3nnc(C(F)F)s3)n2c1` (stereo not shown) [Example 46, 3-(5-(difluoromethyl)-1,3,4-thiadiazol-2-yl)-N-(1-(fluoromethyl)cyclopropyl)-8-(3-hydroxypyrrolidin-1-yl)imidazo[1,5-a]pyridine-6-sulfonamide]: the IC50 runs as follows: under setting [1], under 100 nM; (PARG, TFMU-ADPr substrate) 6.31 nM.
As for `N#CC1(NS(=O)(=O)c2cc(-c3ccc4c(c3)CCO4)c3cnc(-c4nnc(C(F)F)s4)n3c2)CC1` [Example 140, N-(1-cyanocyclopropyl)-3-(5-(difluoromethyl)-1,3,4-thiadiazol-2-yl)-8-(2,3-dihydrobenzofuran-5-yl)imidazo[1,5-a]pyridine-6-sulfonamide], the IC50 is under 100 nM under setting [1] and 26.2 nM (PARG, TFMU-ADPr substrate).
As to `CCC(=O)N1CC=C(c2cnc3c(N4CCN(C(=O)C(C)C)CC4)cc(S(=O)(=O)NC4(C#N)CC4)cn23)C1` [Example 20, N-(1-cyanocyclopropyl)-8-(4-isobutyrylpiperazin-1-yl)-3-(1-propionyl-2,5-dihydro-1H-pyrrol-3-yl)imidazo[1,2-a]pyridine-6-sulfonamide], the IC50 was under 100 nM under setting [1] and 178 nM (PARG, TFMU-ADPr substrate).
The compound `C[C@@H]1CN(c2cc(S(=O)(=O)NC3(C#N)CC3)cn3c(-c4nnc(C(F)F)s4)ncc23)CCN1C(=O)C1CNC1` [Example 288, (R)-8-(4-(azetidine-3-carbonyl)-3-methylpiperazin-1-yl)-N-(1-cyanocyclopropyl)-3-(5-(difluoromethyl)-1,3,4-thiadiazol-2-yl)imidazo[1,5-a]pyridine-6-sulfonamide] had an IC50 (PARG, TFMU-ADPr substrate) of 6.03 nM. In other words, the single-digit nanomolar range.
Turning to `N#CC1(NS(=O)(=O)c2cc(N3CCC(O)C3)c3cnc(-c4nnc(C(F)F)s4)n3c2)CC1` (stereo not shown) [Example 42, N-(1-cyanocyclopropyl)-3-(5-(difluoromethyl)-1,3,4-thiadiazol-2-yl)-8-(3-hydroxypyrrolidin-1-yl)imidazo[1,5-a]pyridine-6-sulfonamide], the IC50 was under 100 nM under setting [1] and 18 nM (PARG, TFMU-ADPr substrate).
`Cc1ncc(-c2cnc3c(N4CCN(C(=O)C(C)C)CC4)cc(S(=O)(=O)NC4(C#N)CC4)cn23)s1` [Example 1, N-(1-cyanocyclopropyl)-8-(4-isobutyrylpiperazin-1-yl)-3-(2-methylthiazol-5-yl)imidazo[1,2-a]pyridine-6-sulfonamide]: for the setting “PARG, TFMU-ADPr substrate”, half-maximal inhibition (IC50) required 1540 nM.
Consider `C[C@@H]1CN(c2cc(S(=O)(=O)NC3CC3)cn3c(-c4nnc(C(F)F)s4)nnc23)CCN1C(=O)C1(C)CC1` [Example 118, (R)-N-cyclopropyl-3-(5-(difluoromethyl)-1,3,4-thiadiazol-2-yl)-8-(3-methyl-4-(1-methylcyclopropane-1-carbonyl)piperazin-1-yl)-[1,2,4]triazolo[4,3-a]pyridine-6-sulfonamide], for which the IC50 is, setting by setting: under setting [1], under 100 nM; (PARG, TFMU-ADPr substrate) 72.4 nM.
As to `C=CC(=O)N1CC=C(c2cnc3c(N4CCN(C(=O)C(C)C)CC4)cc(S(=O)(=O)NC4(C#N)CC4)cn23)C1` [Example 18, 3-(1-acryloyl-2,5-dihydro-1H-pyrrol-3-yl)-N-(1-cyanocyclopropyl)-8-(4-isobutyrylpiperazin-1-yl)imidazo[1,2-a]pyridine-6-sulfonamide], the IC50 reads like this: under setting [1], under 100 nM; (PARG, TFMU-ADPr substrate) 40 nM.
In the case of `CN1CCN(c2cc(S(=O)(=O)NC3(C#N)CC3)cn3c(-c4nnc(C(F)F)s4)ncc23)CC1` [Example 38, N-(1-cyanocyclopropyl)-3-(5-(difluoromethyl)-1,3,4-thiadiazol-2-yl)-8-(4-methylpiperazin-1-yl)imidazo[1,5-a]pyridine-6-sulfonamide], the IC50 is, setting by setting: under setting [1], under 100 nM; (PARG, TFMU-ADPr substrate) 16.4 nM.
In the case of `Cc1ncc2n1CCN(c1cc(S(=O)(=O)NC3(C#N)CC3)cn3c(-c4nnc(C(F)F)s4)ncc13)C2` [Example 44, N-(1-cyanocyclopropyl)-3-(5-(difluoromethyl)-1,3,4-thiadiazol-2-yl)-8-(3-methyl-5,6-dihydroimidazo[1,5-a]pyrazin-7(8H)-yl)imidazo[1,5-a]pyridine-6-sulfonamide], the half-inhibitory concentration (IC50) reads like this: under setting [1], under 100 nM; (PARG, TFMU-ADPr substrate) 10.7 nM.
Regarding `N#CC1(NS(=O)(=O)c2cc(-c3ccc(OC(F)(F)F)cc3)c3cnc(-c4nnc(C(F)F)s4)n3c2)CC1` [Example 141, N-(1-cyanocyclopropyl)-3-(5-(difluoromethyl)-1,3,4-thiadiazol-2-yl)-8-(4-(trifluoromethoxy)phenyl)imidazo[1,5-a]pyridine-6-sulfonamide], the IC50 runs as follows: under setting [1], 100 to 500 nM; (PARG, TFMU-ADPr substrate) 280 nM.
Consider `N#CC1(NS(=O)(=O)c2cc(N3CCC(F)(CO)CC3)c3cnc(-c4nnc(C(F)F)s4)n3c2)CC1` [Example 90, N-(1-cyanocyclopropyl)-3-(5-(difluoromethyl)-1,3,4-thiadiazol-2-yl)-8-(4-fluoro-4-(hydroxymethyl)piperidin-1-yl)imidazo[1,5-a]pyridine-6-sulfonamide], for which the IC50 by setting is: under setting [1], under 100 nM; (PARG, TFMU-ADPr substrate) 34.7 nM.
With `CC(C)C(=O)N1CCN(c2cc(S(=O)(=O)NC3COC3)cn3c(-c4nnc(C(F)F)s4)cnc23)CC1` [Example 16, 3-(5-(difluoromethyl)-1,3,4-thiadiazol-2-yl)-8-(4-isobutyrylpiperazin-1-yl)-N-(oxetan-3-yl)imidazo[1,2-a]pyridine-6-sulfonamide], the IC50 is under 100 nM under setting [1] and 29.7 nM (PARG, TFMU-ADPr substrate).
As for `N#CC1(NS(=O)(=O)c2cc(NC3CCC(OC(F)(F)F)C3)c3cnc(-c4nnc(C(F)F)s4)n3c2)CC1` (stereo not shown) [Example 151, N-(1-cyanocyclopropyl)-3-(5-(difluoromethyl)-1,3,4-thiadiazol-2-yl)-8-((3-(trifluoromethoxy)cyclopentyl)amino)imidazo[1,5-a]pyridine-6-sulfonamide], the IC50 by setting is: under setting [1], 100 to 500 nM; (PARG, TFMU-ADPr substrate) 178 nM.
Take `CC(C)C(=O)N1CCN(c2cc(S(=O)(=O)NC3(C#N)CC3)cn3c(-c4cc5n(n4)CCCC5F)cnc23)CC1` (stereo not shown) [Example 8]: the IC50 (PARG, TFMU-ADPr substrate) was 9690 nM.
In the case of `C[C@H]1CN(c2cc(S(=O)(=O)NC3(C)COC3)cn3c(-c4nnc(C(F)F)s4)nc(Cl)c23)C[C@H](CO)O1` [Example 133, 1-chloro-3-(5-(difluoromethyl)-1,3,4-thiadiazol-2-yl)-8-((2R,6S)-2-(hydroxymethyl)-6-methylmorpholino)-N-(3-methyloxetan-3-yl)imidazo[1,5-a]pyridine-6-sulfonamide], the IC50 (PARG, TFMU-ADPr substrate) was 13.2 nM.
Where the note is “PARG, TFMU-ADPr substrate”, `N#CC1(NS(=O)(=O)c2cc(N3CCN(C(=O)C4CNCCN4)CC3)c3cnc(-c4nnc(C(F)(F)F)s4)n3c2)CC1` (stereo not shown) [Example 280, N-(1-cyanocyclopropyl)-8-(4-(piperazine-2-carbonyl)piperazin-1-yl)-3-(5-(trifluoromethyl)-1,3,4-thiadiazol-2-yl)imidazo[1,5-a]pyridine-6-sulfonamide] displayed an IC50 of 45.7 nM.
For `CN1CCN(c2cc(S(=O)(=O)NC3(C#N)CC3)cn3c(-c4nnc(C(F)F)s4)ncc23)CC1=O` [Example 41, N-(1-cyanocyclopropyl)-3-(5-(difluoromethyl)-1,3,4-thiadiazol-2-yl)-8-(4-methyl-3-oxopiperazin-1-yl)imidazo[1,5-a]pyridine-6-sulfonamide], the IC50 runs as follows: under setting [1], under 100 nM; (PARG, TFMU-ADPr substrate) 29.8 nM.
The corresponding values for `CC(C)C(=O)N1CCN(c2cc(S(=O)(=O)NC3(COC(F)(F)F)CC3)cn3c(-c4nnc(C(F)F)s4)ncc23)CC1` [Example 49, 3-(5-(difluoromethyl)-1,3,4-thiadiazol-2-yl)-8-(4-isobutyrylpiperazin-1-yl)-N-(1-((trifluoromethoxy)methyl)cyclopropyl)imidazo[1,5-a]pyridine-6-sulfonamide] are under 100 nM and 38.4 nM.
Consider `N#CC1(NS(=O)(=O)c2cc(N3CCC(OC(F)(F)F)CC3)c3cnc(-c4nnc(C(F)F)s4)n3c2)CC1` [Example 48, N-(1-cyanocyclopropyl)-3-(5-(difluoromethyl)-1,3,4-thiadiazol-2-yl)-8-(4-(trifluoromethoxy)piperidin-1-yl)imidazo[1,5-a]pyridine-6-sulfonamide], for which the IC50 reads like this: under setting [1], under 100 nM; (PARG, TFMU-ADPr substrate) 13.2 nM.
Regarding `Cc1c(-c2cc(S(=O)(=O)NC3(C#N)CC3)cn3c(-c4nnc(C(F)F)s4)ncc23)cnn1C(C)C` [Example 143, N-(1-cyanocyclopropyl)-3-(5-(difluoromethyl)-1,3,4-thiadiazol-2-yl)-8-(1-isopropyl-5-methyl-1H-pyrazol-4-yl)imidazo[1,5-a]pyridine-6-sulfonamide], the IC50 reads like this: under setting [1], under 100 nM; (PARG, TFMU-ADPr substrate) 12 nM.
`Cc1ncc(-c2cnn3c(N4CCN(C(=O)C(C)C)CC4)cc(S(=O)(=O)NC4(C#N)CC4)cc23)s1` [Example 28, N-(1-cyanocyclopropyl)-7-(4-isobutyrylpiperazin-1-yl)-3-(2-methylthiazol-5-yl)pyrazolo[1,5-a]pyridine-5-sulfonamide]: the IC50 by setting is: under setting [1], under 100 nM; (PARG, TFMU-ADPr substrate) 33 nM.
The corresponding values for `CC(=O)N1CC2(CC=C(c3cc(S(=O)(=O)NC4(C#N)CC4)cn4c(-c5nnc(C(F)F)s5)cnc34)C2)C1` [Example 13, 8-(2-acetyl-2-azaspiro[3.4]oct-6-en-6-yl)-N-(1-cyanocyclopropyl)-3-(5-(difluoromethyl)-1,3,4-thiadiazol-2-yl)imidazo[1,2-a]pyridine-6-sulfonamide] are under 100 nM and 10.9 nM.
